Test results: publication PMC11219871, “Epigenetic-based differentiation therapy for Acute Myeloid Leukemia” (Nature Communications, 2024)
Values joined by “and” are separate entries in the source; they are usually repeats but may differ in a detail not shown here. Equal entries are not always repeated.

Tests used:
[1] = molecular target: T1, HDAC9 (Homo sapiens, UniProt Q9UKV0); assay: HDAC assay (Eurofins); format: biochemical
T1 construct: purchased Eurofins (contracted assay service)

[2] = tested on: MV4-11; assay: q-RT-PCR of MYC, CDKN2A, CDKN1A, GATA2, TAL1, CEBPA, SPI1; format: cell-based, human
Description: (§1) RNA was extracted with TRIzol Reagent (Invitrogen) according to the manufacturer’s instructions. First, cDNA was synthesized from 1 µg of total RNA using the PrimeScript RT reagent Kit (Perfect Real Time) (Cat No RR037A, TaKaRa) following the manufacturer’s instructions. The quality of cDNA was checked by a multiplex PCR that amplifies PBGD, ABL, BCR and β2-MG genes. […] The following program conditions were used for the q-PCR: 50 °C for 2 min, 95 °C for 60 s following by 45 cycles at 95 °C for 15 s and 60 °C for 60 s; melting program, one cycle at 95 °C for 15 s, 40 °C for 60 s, and 95 °C for 15 s. The relative expression of each gene was quantified by the […] method using the gene GUS as an endogenous control. The sequence of primers used can be found in Supplementary Table 10.

[3] = tested on: HL-60; assay: as above; format: cell-based, human
Description: as §1

[4] = tested on: LINE-1 DNA methylation in HL-60; assay: LINE-1 pyrosequencing; format: cell-based, human
Description: (§2) DNA methylation of the repetitive element LINE-1 was analyzed using a pyrosequencing technique. […] Cells were washed twice with PBS, and then genomic DNA was extracted using a DNA Kit (Nucleo Spin Tissue, Cat No 74095250, Macherey-Nagel) following the manufacturer's instructions. DNA purity and concentration were measured using a NanoDrop spectrophotometer (Thermo Scientific). A 1 μg amount of genomic DNA was treated and modified using a CpGenome DNA modification Kit (Cat No S7820, Chemicon International) following the manufacturer's instructions. […] [NT]) in a final volume of 25 μL. The resulting biotinylated PCR products were immobilized to Streptavidin Sepharose ® High-Performance beads (GE Healthcare) and processed to yield high-quality ssDNA using the PyroMark Vacuum Prep Workstation (Biotage) according to the manufacturer's instructions. The pyrosequencing reactions were performed using the PyromarkTM ID (Biotage), and sequence analysis was performed using the PyroQ-CpG analysis software (Biotage).

[5] = tested on: LINE-1 DNA methylation in ML-2; assay: LINE-1 pyrosequencing; format: cell-based, human
Description: as §2

[6] = tested on: LINE-1 DNA methylation in MOLM-13; assay: LINE-1 pyrosequencing; format: cell-based, human
Description: as §2

[7] = tested on: LINE-1 DNA methylation in MV4-11; assay: LINE-1 pyrosequencing; format: cell-based, human
Description: as §2

[8] = MV4-11, daily treatment for 48 h, replicates 1-3
[9] = HL-60, replicates 1-3 (Figure 2E)
[10] = HL-60, replicates 1-3 (Figure 2G)
[11] = HL-60 treated daily for 48 h, replicates (Fig 6F)

T1 sequence (Q9UKV0 whole entry): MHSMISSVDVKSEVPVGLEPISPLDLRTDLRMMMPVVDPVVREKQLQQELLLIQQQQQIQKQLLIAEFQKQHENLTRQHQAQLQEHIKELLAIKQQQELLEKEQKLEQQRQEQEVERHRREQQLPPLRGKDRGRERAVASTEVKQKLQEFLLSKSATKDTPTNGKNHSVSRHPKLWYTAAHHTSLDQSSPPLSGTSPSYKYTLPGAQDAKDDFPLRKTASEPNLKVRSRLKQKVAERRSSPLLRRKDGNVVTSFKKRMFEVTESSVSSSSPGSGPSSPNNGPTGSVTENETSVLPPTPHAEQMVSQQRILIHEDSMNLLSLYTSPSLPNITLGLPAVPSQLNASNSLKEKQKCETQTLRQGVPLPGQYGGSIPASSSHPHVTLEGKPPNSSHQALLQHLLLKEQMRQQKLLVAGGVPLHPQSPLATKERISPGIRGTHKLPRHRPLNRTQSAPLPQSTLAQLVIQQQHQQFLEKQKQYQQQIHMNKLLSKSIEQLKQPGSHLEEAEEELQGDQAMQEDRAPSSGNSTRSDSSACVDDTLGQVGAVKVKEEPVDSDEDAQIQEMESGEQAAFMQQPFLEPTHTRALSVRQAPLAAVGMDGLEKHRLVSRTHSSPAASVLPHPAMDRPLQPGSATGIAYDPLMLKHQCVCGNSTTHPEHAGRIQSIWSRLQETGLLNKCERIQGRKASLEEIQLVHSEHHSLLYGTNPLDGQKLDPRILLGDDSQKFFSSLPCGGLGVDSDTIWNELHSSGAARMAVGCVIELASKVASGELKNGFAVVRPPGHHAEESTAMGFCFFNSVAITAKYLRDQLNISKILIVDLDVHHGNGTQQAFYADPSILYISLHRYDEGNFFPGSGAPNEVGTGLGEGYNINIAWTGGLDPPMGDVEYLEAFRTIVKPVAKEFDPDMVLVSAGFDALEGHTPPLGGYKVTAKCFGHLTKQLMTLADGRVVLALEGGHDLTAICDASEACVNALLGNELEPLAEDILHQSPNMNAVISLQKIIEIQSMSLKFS

COc1cc2nc(-c3ccc(C)o3)cc(NCC3CCN(c4ncc(C(=O)NO)cn4)CC3)c2cc1OC [CM-444, 2-[4-[[[6,7-dimethoxy-2-(5-methyl-2-furyl)-4-quinolyl]amino]methyl]-1-piperidyl]pyrimidine-5-carbohydroxamic acid]
IC50 [1]: 0.09 µM | inhibition at 10 µM ([1]; 10 µM): 98% | q-PCR of CEBPA, log10 (2-ΔΔCt) [2, 8]: 1.345 and 1.361 and 1.2654 | q-PCR of GATA2, log10 (2-ΔΔCt) [2, 8]: 2.051 and 2.02 and 2.0001 | q-PCR of MYC, log10 (2-ΔΔCt) [2, 8]: -0.5124 and -0.645 and -0.6461 | q-PCR of SPI1, log10 (2-ΔΔCt) [2, 8]: 0.5839 and 0.521 and 0.5293 | q-PCR of TAL1, log10 (2-ΔΔCt) [2, 8]: 0.7218 and 0.3689 and 0.9897 | CDKN1A log10 (2-ΔΔCt) ([2]; MV4-11, q-PCR): 0.9858 and 0.7237 and 0.8689 | CDKN2A log10 (2-ΔΔCt) ([2]; MV4-11, q-PCR): 1.137 and 1.036 and 1.001 | CEBPA log10 (2-ΔΔCt) ([2]; MV4-11, q-PCR): 1.693 and 1.502 and 1.597 | MYC log10 (2-ΔΔCt) ([2]; MV4-11, q-PCR): -0.5932 and -0.4926 and -0.5131 | SPI1 log10 (2-ΔΔCt) ([2]; MV4-11, q-PCR): 0.3258 | TAL1 log10 (2-ΔΔCt) ([2]; MV4-11, q-PCR): 0.527 and 0.4921 and 0.4657 | q-PCR of CDKN1A (p21), log10 (2-ΔΔCt) [3, 9]: 1.981 and 1.653 and 1.57 | q-PCR of CDKN2A (p16), log10 (2-ΔΔCt) [3, 9]: 0.3125 and 0.3822 and 0.4047 | q-PCR of MYC, log10 (2-ΔΔCt) [3, 9]: -0.5893 and -0.4826 and -0.451 | q-PCR of CEBPA, log10 (2-ΔΔCt) [3, 10]: 0.7569 and 0.6258 and 0.5709 | q-PCR of GATA2, log10 (2-ΔΔCt) [3, 10]: 1.013 and 0.858 and 0.8451 | q-PCR of SPI1 (PU.1), log10 (2-ΔΔCt) [3, 10]: 0.7127 and 0.6825 and 0.8316 | q-PCR of TAL1 (SCL), log10 (2-ΔΔCt) [3, 10]: 0.1258 and 0.2369 and 0.3382 | q-PCR of CEBPA [3, 11]: 1.462 log10 (2-ΔΔCt) and 1.7754 log10 (2-ΔΔCt) and 1.81 log10 (2-ΔΔCt) | q-PCR of GATA2 [3, 11]: 0.8764 log10 (2-ΔΔCt) and 0.8459 log10 (2-ΔΔCt) and 0.7844 log10 (2-ΔΔCt) | q-PCR of MYC [3, 11]: -0.6475 log10 (2-ΔΔCt) and -0.7277 log10 (2-ΔΔCt) and -0.6044 log10 (2-ΔΔCt) | q-PCR of SPI1 [3, 11]: 0.6661 log10 (2-ΔΔCt) and 0.715 log10 (2-ΔΔCt) and 0.8576 log10 (2-ΔΔCt) | q-PCR of TAL1 [3, 11]: 2.167 log10 (2-ΔΔCt) and 1.539 log10 (2-ΔΔCt) and 2.185 log10 (2-ΔΔCt) | LINE-1 methylation (%) CG Position 1 ([4]; 48 h, 0.27 µM): 97% | LINE-1 methylation (%) CG Position 2 ([4]; 48 h, 0.27 µM): 83% | LINE-1 methylation (%) CG Position 3 ([4]; 48 h, 0.27 µM): 100% | LINE-1 methylation (%) CG Position 4 ([4]; 48 h, 0.27 µM): 100% | LINE-1 methylation (%) CG Position 5 ([4]; 48 h, 0.27 µM): 73% | LINE-1 methylation (%) CG Position 1 Replicate 1 ([4]; HL-60, 48 h): 96% | LINE-1 methylation (%) CG Position 1 Replicate 2 ([4]; HL-60, 48 h): 98% | LINE-1 methylation (%) CG Position 2 Replicate 1 ([4]; HL-60, 48 h): 84% | LINE-1 methylation (%) CG Position 2 Replicate 2 ([4]; HL-60, 48 h): 82% | LINE-1 methylation (%) CG Position 3 Replicate 1 ([4]; HL-60, 48 h): 100% | LINE-1 methylation (%) CG Position 3 Replicate 2 ([4]; HL-60, 48 h): 100% | LINE-1 methylation (%) CG Position 4 Replicate 1 ([4]; HL-60, 48 h): 100% | LINE-1 methylation (%) CG Position 4 Replicate 2 ([4]; HL-60, 48 h): 100% | LINE-1 methylation (%) CG Position 5 Replicate 1 ([4]; HL-60, 48 h): 72% | LINE-1 methylation (%) CG Position 5 Replicate 2 ([4]; HL-60, 48 h): 74% | LINE-1 methylation (%) CG Position 1 ([4]; HL-60, 10 days): 77% and 81% | LINE-1 methylation (%) CG Position 2 ([4]; HL-60, 10 days): 66% and 70% | LINE-1 methylation (%) CG Position 3 ([4]; HL-60, 10 days): 71% and 75% | LINE-1 methylation (%) CG Position 4 ([4]; HL-60, 10 days): 86% and 88% | LINE-1 methylation (%) CG Position 5 ([4]; HL-60, 10 days): 65% and 63% | LINE-1 methylation (%) CG Position 1 ([5]; ML-2, 48 hours): 65% and 67% | LINE-1 methylation (%) CG Position 2 ([5]; ML-2, 48 hours): 73% | LINE-1 methylation (%) CG Position 3 ([5]; ML-2, 48 hours): 77% and 81% | LINE-1 methylation (%) CG Position 4 ([5]; ML-2, 48 hours): 86% and 88% | LINE-1 methylation (%) CG Position 5 ([5]; ML-2, 48 hours): 56% and 64% | LINE-1 methylation (%) CG Position 1 ([5]; ML-2, 10 days): 61% and 57% | LINE-1 methylation (%) CG Position 2 ([5]; ML-2, 10 days): 48% and 46% | LINE-1 methylation (%) CG Position 3 ([5]; ML-2, 10 days): 66% and 62% | LINE-1 methylation (%) CG Position 4 ([5]; ML-2, 10 days): 64% and 60% | LINE-1 methylation (%) CG Position 5 ([5]; ML-2, 10 days): 46% and 44% | LINE-1 methylation (%) CG Position 1 ([6]; MOLM-13, 48 hours): 100% | LINE-1 methylation (%) CG Position 2 ([6]; MOLM-13, 48 hours): 83% and 79% | LINE-1 methylation (%) CG Position 3 ([6]; MOLM-13, 48 hours): 100% | LINE-1 methylation (%) CG Position 4 ([6]; MOLM-13, 48 hours): 100% | LINE-1 methylation (%) CG Position 5 ([6]; MOLM-13, 48 hours): 74% and 78% | LINE-1 methylation (%) CG Position 1 ([6]; MOLM-13, 5 days): 62% | LINE-1 methylation (%) CG Position 2 ([6]; MOLM-13, 5 days): 60% and 68% | LINE-1 methylation (%) CG Position 3 ([6]; MOLM-13, 5 days): 69% and 73% | LINE-1 methylation (%) CG Position 4 ([6]; MOLM-13, 5 days): 74% and 76% | LINE-1 methylation (%) CG Position 5 ([6]; MOLM-13, 5 days): 53% and 55% | LINE-1 methylation (%) CG Position 1 ([7]; MV4-11, 48 hours): 83% and 85% | LINE-1 methylation (%) CG Position 2 ([7]; MV4-11, 48 hours): 79% and 77% | LINE-1 methylation (%) CG Position 3 ([7]; MV4-11, 48 hours): 99% and 97% | LINE-1 methylation (%) CG Position 4 ([7]; MV4-11, 48 hours): 100% | LINE-1 methylation (%) CG Position 5 ([7]; MV4-11, 48 hours): 70% and 66% | LINE-1 methylation (%) CG Position 1 ([7]; MV4-11, 5 days): 80% and 82% | LINE-1 methylation (%) CG Position 2 ([7]; MV4-11, 5 days): 79% and 77% | LINE-1 methylation (%) CG Position 3 ([7]; MV4-11, 5 days): 77% | LINE-1 methylation (%) CG Position 4 ([7]; MV4-11, 5 days): 91% and 89% | LINE-1 methylation (%) CG Position 5 ([7]; MV4-11, 5 days): 65% and 67%
